Laboratory results reported in the supplement of paper PMC5908809.

Columns and labels:
[1] = tested on: normal NK cells expanded with K562-aAPC; test: drug sensitivity score (DSS) (DSS units); higher = more sensitive; extreme values may be limits of the assay; settings: 72 h; IL-2 2.5 ng/mL
Experimental: (§1)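 Drug sensitivity and resistance testing on K562-aAPC-expanded normal NK cells: 5 concentrations (10-fold steps over a 10,000-fold range), 72 h at 37 °C, viability by CellTiter-Glo normalised to DMSO and benzethonium chloride controls; DSS from the fitted curve.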

[2] = tested on: normal NK cells expanded with K562-aAPC; test: percent inhibition of viability; higher = more inhibition; settings: 72 h, IL-2 2.5 ng/mL
Experimental: as §1

[3] = tested on: DERL-7 (IL-2 2.5 ng/mL); test: as above; settings: 72 h
[4] = tested on: NKL (IL-2 2.5 ng/mL); test: as above; settings: 72 h
[5] = tested on: normal primary NK cells, pool 2 (3 donors) (IL-2 2.5 ng/mL); test: as above; settings: 72 h
[6] = tested on: SNK-6 (IL-2 2.5 ng/mL); test: as above; settings: 72 h
[7] = tested on: KAI3 (IL-2 2.5 ng/mL); test: as above; settings: 72 h
[8] = tested on: normal primary NK cells, pool 3 (3 donors) (IL-2 2.5 ng/mL); test: as above; settings: 72 h
[9] = tested on: YT (IL-2 2.5 ng/mL); test: as above; settings: 72 h
[10] = tested on: IMC-1 (IL-2 20 ng/mL); test: as above; settings: 72 h
[11] = tested on: NK-92 (IL-2 2.5 ng/mL); test: as above; settings: 72 h
[12] = tested on: normal primary NK cells, pool 1 (3 donors) (IL-2 2.5 ng/mL); test: as above; settings: 72 h
[13] = tested on: KHYG-1 (IL-2 2.5 ng/mL); test: as above; settings: 72 h
[14] = tested on: normal primary NK cells, pool 1 (3 donors), resting (IL-2 0 ng/mL); test: as above; settings: 72 h
[15] = tested on: NK-YS (IL-2 2.5 ng/mL); test: as above; settings: 72 h
[16] = tested on: DERL-7 (IL-2 2.5 ng/mL); test: drug sensitivity score (DSS) (DSS units); higher = more sensitive; extreme values may be limits of the assay; settings: 72 h
[17] = tested on: NKL (IL-2 2.5 ng/mL); test: as above; settings: 72 h
[18] = tested on: normal primary NK cells, pool 2 (3 donors) (IL-2 2.5 ng/mL); test: as above; settings: 72 h
[19] = tested on: SNK-6 (IL-2 2.5 ng/mL); test: as above; settings: 72 h
[20] = tested on: KAI3 (IL-2 2.5 ng/mL); test: as above; settings: 72 h
[21] = tested on: normal primary NK cells, pool 3 (3 donors) (IL-2 2.5 ng/mL); test: as above; settings: 72 h
[22] = tested on: YT (IL-2 2.5 ng/mL); test: as above; settings: 72 h
[23] = tested on: IMC-1 (IL-2 20 ng/mL); test: as above; settings: 72 h
[24] = tested on: NK-92 (IL-2 2.5 ng/mL); test: as above; settings: 72 h
[25] = tested on: normal primary NK cells, pool 1 (3 donors) (IL-2 2.5 ng/mL); test: as above; settings: 72 h
[26] = tested on: KHYG-1 (IL-2 2.5 ng/mL); test: as above; settings: 72 h
[27] = tested on: normal primary NK cells, pool 1 (3 donors), resting (IL-2 0 ng/mL); test: as above; settings: 72 h
[28] = tested on: NK-YS (IL-2 2.5 ng/mL); test: as above; settings: 72 h

CO[C@H]1C[C@@H]2CC[C@@H](C)[C@@](O)(O2)C(=O)C(=O)N2CCCC[C@H]2C(=O)O[C@H]([C@H](C)C[C@@H]2CC[C@@H](OCCO)[C@H](OC)C2)CC(=O)[C@H](C)/C=C(\C)[C@@H](O)[C@@H](OC)C(=O)[C@H](C)C[C@H](C)/C=C/C=C/C=C/1C [Everolimus] (max concentration tested 100 nM)
Settings | drug sensitivity score
[1] | 0
[16] | 12.3
[17] | 14.5
[18] | 0
[19] | 16.6
[20] | 12.1
[21] | 0
[22] | 8.98
[23] | 0
[24] | 1.27
[25] | 0
[26] | 5.27
[27] | 1.91
[28] | 13.5

percent inhibition of viability [%]
Settings | 0.01 nM | 0.1 nM | 1 nM | 10 nM | 100 nM
[2] | -0.77 | -3.8 | -2.52 | 2.05 | 0.46
[3] | -6.16 | 5.85 | 26.6 | 49.4 | 52.4
[4] | 4.18 | 17.6 | 36.9 | 46 | 43.3
[5] | -7.7 | -1.98 | 0.82 | 5.73 | 4.97
[6] | 5.61 | 27 | 39.2 | 45.4 | 42.4
[7] | -3.78 | 2.36 | 31.4 | 45.3 | 37.6
[8] | -12.6 | -4.69 | -3.14 | -1.42 | -2.25
[9] | 0.19 | -0.65 | 15.8 | 38.4 | 37
[10] | -0.49 | -3.23 | -12.1 | -39.5 | -47.1
[11] | -9.11 | -13.2 | 0.14 | 10.7 | 17
[12] | -12.5 | -14.8 | -8.5 | 3.67 | 5.77
[13] | -2.44 | -5.06 | 0.91 | 30.6 | 28.2
[14] | -9.7 | -10.5 | -6.43 | 11.5 | 21.5
[15] | -2.59 | 2.94 | 38.2 | 47.2 | 45.8

Nc1nc(Cl)nc2c1ncn2[C@@H]1O[C@H](CO)[C@@H](O)[C@@H]1F [Clofarabine] (max concentration tested 10000 nM)
Settings | drug sensitivity score
[1] | 32.1
[16] | 32.5
[17] | 29.8
[18] | 31
[19] | 28.5
[20] | 28
[21] | 30.7
[22] | 16.8
[23] | 27.6
[24] | 30.5
[25] | 33.7
[26] | 29.9
[27] | 35.8
[28] | 26.4

percent inhibition of viability [%]
Settings | 1 nM | 10 nM | 100 nM | 1000 nM | 10000 nM
[2] | -7.69 | 10 | 99.8 | 100 | 101
[3] | -6.34 | 12.4 | 98.8 | 100 | 100
[4] | -14.3 | -3.55 | 97.4 | 102 | 105
[5] | 1.6 | 18 | 90.5 | 95 | 96.2
[6] | -9.36 | -23.6 | 95 | 96.3 | 98.6
[7] | -5.93 | 2 | 84.8 | 100 | 103
[8] | -5.8 | 12.6 | 91 | 98.5 | 99.3
[9] | -2.64 | -4.64 | 17.5 | 78.8 | 85.4
[10] | -5.2 | -10.7 | 83.5 | 99.8 | 100
[11] | -17 | 2.38 | 98.2 | 101 | 104
[12] | 1.34 | 32.7 | 95.2 | 96.8 | 97.6
[13] | -5.63 | -3.93 | 98.4 | 101 | 102
[14] | -1.53 | 61.1 | 92.3 | 90.6 | 93.4
[15] | -2.94 | -3.43 | 73.3 | 96.5 | 100

Cc1csc(-c2nnc(Nc3ccc(Oc4ncccc4-c4ccnc(N)n4)cc3)c3ccccc23)c1 [AMG-900] (max concentration tested 1000 nM)
Settings | drug sensitivity score
[1] | 6.8
[16] | 17.1
[17] | 0
[18] | 0
[19] | 23
[20] | 5.44
[21] | 0
[22] | 3.19
[23] | 6.18
[24] | 6.74
[25] | 0
[26] | 12.6
[27] | 0.61
[28] | 20.2

percent inhibition of viability [%]
Settings | 0.1 nM | 1 nM | 10 nM | 100 nM | 1000 nM
[2] | -2.04 | -5.9 | -2.98 | 39.7 | 33
[3] | -3.26 | -1.85 | 31 | 70.8 | 53.9
[4] | -16.8 | -17.8 | -16.6 | -9.7 | -5.52
[5] | -8.07 | -6.23 | -6.7 | -3.83 | -5.92
[6] | 15.5 | 7.4 | 68.4 | 57.2 | 72.8
[7] | -5.87 | -5.96 | 19.4 | 20.4 | 43.4
[8] | -7.42 | 4.77 | -7.75 | -0.31 | -0.94
[9] | -0.32 | -0.28 | 13 | 16 | 24.9
[10] | -5.67 | -6.98 | 18.2 | 21.9 | 63.9
[11] | -9.63 | -11.2 | 17.6 | 27.6 | 52.6
[12] | -4.05 | -2.86 | -4.93 | -3.83 | -3.7
[13] | -2.26 | -0.47 | 44.5 | 33.3 | 59.8
[14] | -1.37 | -7.12 | 5.07 | 10.8 | 11.6
[15] | -5.77 | -3.39 | 59.6 | 59.6 | 71.8

CN(Cc1cnc2nc(N)nc(N)c2n1)c1ccc(C(=O)N[C@@H](CCC(=O)O)C(=O)O)cc1 [Methotrexate] (max concentration tested 5000 nM)
Settings | drug sensitivity score
[1] | 5.62
[16] | 7.89
[17] | 16.1
[18] | 0.89
[19] | 27.2
[20] | 25.6
[21] | 0.89
[22] | 20.5
[23] | 26.7
[24] | 24.3
[25] | 0
[26] | 29.8
[27] | 1.25
[28] | 27.5

percent inhibition of viability [%]
Settings | 0.5 nM | 5 nM | 50 nM | 500 nM | 5000 nM
[2] | -3.65 | -3.48 | -3.07 | 34 | 31.4
[3] | 1.41 | 1.81 | -8.11 | 43.7 | 51.8
[4] | -5.39 | -6.27 | 40.4 | 61.1 | 58.2
[5] | -8.41 | -4.79 | -9.59 | -5.9 | -3.72
[6] | 2.63 | 21 | 76.8 | 81.2 | 82.7
[7] | 2.61 | 9.06 | 73.1 | 86.4 | 80.6
[8] | -11.3 | -6.43 | -11.2 | -2.82 | -3.84
[9] | 5.17 | 3.44 | 63.8 | 54.4 | 48.9
[10] | -3.79 | 5.79 | 72.9 | 95.6 | 97.3
[11] | -11.1 | 6.17 | 69.3 | 84 | 80.7
[12] | -2.85 | -7.99 | 1.44 | -1.93 | -0.84
[13] | 1.68 | 0.21 | 95.2 | 104 | 99.2
[14] | -7.95 | -0.85 | 11.4 | 8.67 | 18.2
[15] | 7.63 | 4.28 | 83.5 | 93 | 87.1
